{
  "source": "patent US20020009441A1",
  "about": "“Reactively modified therapeutic compounds having an extended lifetime in vivo” (priority 1993, published 2002)",
  "key": {"anti-avidin titer": {"test_system": "anti-avidin titer", "assay": "Anti-avidin antibody titer by ELISA after i.v. avidin", "assay_type": "in vivo, rabbit", "text": "II. […] Within about 2 days the titer began to rise rapidly and by 10 days a high anti-avidin titer was observed by ELISA, using avidin coated to microiplates, as evidenced by an OD value of about 600."}, "[1]": {"details": "blood component in blood; cited from earlier work"}, "plasma proteins": {"test_system": "plasma proteins", "details": "rabbit, in vivo"}, "red blood cells": {"test_system": "red blood cells", "details": "rabbit, in vivo", "description": "I. Two rabbits were injected with a solution of N-succinimidyl biotin ester (NHS-biotin)(5 or 50 mg in 200 μl or 1 ml of DMSO) i.v. on day 0."}},
  "data": [
    {"compound": "avidin: egg white avidin, heterologous protein and reciprocal binding member of biotin", "values": [
      {"measurement": "time at which anti-avidin titer began to rise rapidly", "setting": "anti-avidin titer; 250 μg or 1 mg egg white avidin i.v. after biotin conjugate administration", "value": "≤ 2", "unit": "days"},
      {"measurement": "anti-avidin titer, OD value (ELISA)", "setting": "anti-avidin titer; by 10 days, 250 μg or 1 mg egg white avidin i.v. after biotin conjugate administration", "value": "about 600"},
      {"measurement": "anti-avidin antibody production", "setting": "anti-avidin titer; rabbits not previously given biotin conjugate, before i.v. booster of 50 μg avidin on day 6", "value": "substantially no production of antibodies"}
    ]},
    {"compound": "transferrin: blood protein, mobile blood component", "values": [
      {"measurement": "Half-life", "setting": "[1]", "value": 240, "unit": "h"}
    ]},
    {"compound": "O=C1N[C@H]2[C@H](CS[C@H]2CCCCC(=O)ON2C(=O)CCC2=O)N1", "note": "[NHS-biotin, N-succinimidyl biotin ester]", "values": [
      {"measurement": "duration for which IgG bands could be observed", "setting": "plasma proteins", "value": 9, "unit": "days"},
      {"measurement": "duration of detection of biotin bound to IgM and IgG", "setting": "plasma proteins", "value": "up to 33 days"},
      {"measurement": "biotinylated red blood cell protein bands at 33 days", "setting": "red blood cells", "value": "no bands could be observed"},
      {"measurement": "duration for which biotinylated red blood cell proteins could be observed", "setting": "red blood cells", "value": 12, "unit": "days"}
    ]}
  ]
}
